What was measured:
TRPC3 [1] = test system: T1, TRPC3; experiment: Microfluorometric single-cell [Ca2+]i analysis, fura-2-loaded HEK cells stably expressing TRPC3; format: cell-based, human; details: 100 µM OAG applied sequentially; also in HEK cells expressing mouse TRPC3
T1 construct: expressed in transfected cells
Description: (§1) The microfluorometric single-cell [Ca^2+]i analysis was performed on an inverted epifluorescence microscope (Carl Zeiss, Jena, Germany) and calibrated as described. Cells were grown on 25 mm coverslips and loaded with 4 µM fura-2/AM (AAT Bioquest, Sunnyvale, CA, U.S.A.) in HBS containing 0.2% BSA for 30 min at 37 °C. After gently rinsing the coverslips with HBS, coverslips were mounted in a bath chamber and superfused with HBS containing 0.035% BSA.
Figure 2 Microfluorometric single-cell analysis of artemisinin-induced increases in [Ca^2+]i in fura-2-loaded HEK cells stably expressing TRPC3 (A), TRPC6 (B), or TRPC7 (C). […] Experiments were performed either in standard bath solution, containing 1 mM Ca^2+ (black lines and bars), or in a nominally Ca^2+-free HBS buffer, supplemented with 200 µM EGTA (grey lines and bars). Time courses of averaged responses (left), and statistical analysis of 6–11 independent imaging experiments with means and S.D. (right) are shown. Significant differences (p < 0.05, Student´s t-test with paired data: #, with unpaired data: *) are marked for the indicated comparisons; n.s.: difference is statistically not significant.

TRPC7 = test system: T2, TRPC7; experiment: Whole-cell patch-clamp recordings in HEK TRPC7-YFP cells; format: cell-based, human; details: 50 µM OAG, subsequent exposure
T2 construct: expressed in transfected cells
Description: (§2) The recordings of TRPC3, TRPC6, or TRPC7 membrane currents in HEK293 or PC12 cells were realized by using a Multiclamp 700B amplifier with a Digidata 1440A digitizer controlled by the PClamp 10 software (all Molecular Devices, Sunnyvale, CA, U.S.A.). Recordings were obtained at room temperature either in the whole-cell or in an outside-out configuration as indicated. Cells were seeded as described above, but at lower density, mounted in a chamber (Warner Instruments, Hamden, CT; U.S.A.), placed onto the stage of an inverted microscope, and perfused with required solution. The standard extracellular solution contained 140 mM NaCl, 5 mM CsCl, 2 mM MgCl2, 1 mM CaCl2, 10 mM HEPES, and 0.035% BSA adjusted to pH 7.4 with NaOH. The composition of standard intracellular solution was 140 mM CsCl, 1 mM MgCl2, 5 mM EGTA, and 10 mM HEPES adjusted to pH 7.25 with CsOH; the osmolarity was 295 mOsm l^−1. In outside-out measurements, the pipette solution contained 5 mM EGTA and 1.1 mM CaCl2 to achieve a calculated free Ca^2+ concentration of 100 nM.
(§3) Patch pipettes were pulled from borosilicate glass capillaries BG150F-8P (Science Products, Hofheim, Germany) with a PIP6 pipette puller (HEKA Elektronik, Lambrecht, Germany). […] In all whole-cell measurements, the series resistance was lower than 13 MΩ, and compensated by 70%. […]

TRPC3 [2] = biological target: T3, TRPC3 (Homo sapiens, UniProt Q13507); experiment: Fluo-4 Ca2+ influx assay in HEK TRPC3-YFP cell suspensions; format: cell-based
T3 construct: expressed in transfected cells
T3 sequence (Q13507 1-848 isoform Q13507-3): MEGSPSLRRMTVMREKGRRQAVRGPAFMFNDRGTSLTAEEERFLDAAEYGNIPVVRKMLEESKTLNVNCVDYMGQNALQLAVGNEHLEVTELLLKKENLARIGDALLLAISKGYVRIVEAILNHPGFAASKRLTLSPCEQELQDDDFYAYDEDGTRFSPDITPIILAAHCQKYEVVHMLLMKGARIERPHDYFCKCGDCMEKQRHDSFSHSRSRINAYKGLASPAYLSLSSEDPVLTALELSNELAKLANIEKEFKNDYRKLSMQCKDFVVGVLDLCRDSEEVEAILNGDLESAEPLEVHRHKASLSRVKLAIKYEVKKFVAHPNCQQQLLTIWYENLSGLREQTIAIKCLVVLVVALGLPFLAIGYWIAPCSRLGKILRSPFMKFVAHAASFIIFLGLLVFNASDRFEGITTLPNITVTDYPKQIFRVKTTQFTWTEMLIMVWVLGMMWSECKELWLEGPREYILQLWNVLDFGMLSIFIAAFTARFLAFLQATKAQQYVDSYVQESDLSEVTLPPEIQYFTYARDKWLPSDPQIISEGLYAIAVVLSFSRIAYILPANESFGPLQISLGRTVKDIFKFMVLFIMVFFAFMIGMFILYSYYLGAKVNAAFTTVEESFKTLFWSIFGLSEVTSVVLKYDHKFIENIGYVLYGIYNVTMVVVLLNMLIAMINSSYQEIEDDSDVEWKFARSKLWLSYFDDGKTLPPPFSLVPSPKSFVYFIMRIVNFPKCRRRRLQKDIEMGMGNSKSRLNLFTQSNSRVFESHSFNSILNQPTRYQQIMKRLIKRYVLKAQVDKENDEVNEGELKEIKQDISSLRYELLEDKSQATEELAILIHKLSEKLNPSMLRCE

[3] = test system: PC12 cells (native TRPC3 channel complexes); experiment: [Ca2+]i analysis in fura-2-loaded PC12 cells; format: cell-based, rat; details: artemisinin 50 or 100 µM; 6–12 experiments for each compound
Description: Human embryonic kidney 293 (HEK293) cells were stably transfected with expression plasmids that encode hTRPC3-YFP, hTRPC6-YFP, hTRPC7-YFP, mTRPC4ß-YFP, rTRPV1-CFP, rTRPV2-YFP, rTRPV3-YFP, mTRPV4-YFP, or hTRPM2 as previously described. Cell lines were cultured in Earle’s minimum essential medium (MEM; Sigma, Munich, Germany), supplemented with 10% fetal calf serum (Gibco Thermo Fisher Scientific, Darmstadt, Germany), 2 mM L-glutamine, and required concentrations of geneticin in a range of 0.4–1 mg/mL. A HEK293mTRPC5-YFP cell line was maintained and induced as described before. The HEK293mTRPM3α2 cells (expressing the Ca^2+-permeable main variant of mouse TRPM3) were kindly provided by Johannes Oberwinkler (Marburg, Germany), the HEK293hTRPA1 cells that constitutively overexpress the human TRPA1 were from Dr. Natalie Tigue and Dr. Steve Moore (GlaxoSmithKline, Harlow, UK). With the exception of mTRPC5-YFP, all cell lines constitutively overexpress the respective TRP channel under the control of a cytomegalovirus (CMV) promoter. A HEK cell line stably expressing the human protein kinase C (PKC) ε C-terminally tagged with YFP [13] was generated and maintained in the same medium as HEKTRPC3-YFP cells. PC12 cells were cultured in RPMI-1640 (Sigma, Munich, Germany) with 10% fetal calf serum, 2 mM L-glutamine, 100 U/mL penicillin, and 0.1 mg/mL streptomycin. For electrophysiological and single cell [Ca^2+]i imaging experiments, PC12 cells were plated onto 25 mm poly-L-lysine-coated glass coverslips and measured 24–48 h after seeding. All cells were maintained at 37 °C in a 5% CO2-aerated, humidified atmosphere.
as §1
Figure 7 Expression of TRPC3 and functional responses to TRPC activators in PC12 rat pheochromocytoma cells. (A) Immunofluorescence analysis of TRPC3 (green channel) and tyrosine hydroxylase (TH; red channel) expression in PC12 cells. Nuclei were counterstained with DAPI (blue channel). Bars: 20 µm scale. Time course of the [Ca^2+]i (B) and averaged basal and peak [Ca^2+]i values (C) were recorded by microfluorometric analysis in fura-2-loaded PC12 cells grown on glass coverslips. […] Data represent averages (B) or means and S.D. (C) of 6–12 imaging experiments for each compound. Significant increases compared to the respective basal values are indicated (#: p < 0.05; Student´s t-test for paired data).

TRPC6 = test system: T4, TRPC6; experiment: Whole-cell patch-clamp recordings in HEK TRPC6-YFP cells; format: cell-based, human; details: 50 µM OAG, subsequent exposure
T4 construct: expressed in transfected cells
Description: as §2, §3

hTRPC7-YFP = test system: T5, hTRPC7-YFP; experiment: Fluo-4 Ca2+ influx assay in HEK293 cells stably expressing TRPC7; format: cell-based, human; details: fluo-4 concentration response analysis
T5 construct: expressed in transfected cells

hTRPC6-YFP = test system: T6, hTRPC6-YFP; experiment: Fluo-4 Ca2+ influx assay in HEK293 cells stably expressing TRPC6; format: cell-based, human
T6 construct: expressed in transfected cells

[4] = test system: T7, heteromeric TRPC3:TRPC6 channel complexes; experiment: Fluo-4 Ca2+ influx assay in HEK293 cells co-expressing TRPC3 and TRPC6; format: cell-based; details: fluo-4 concentration response analysis
T7 construct: expressed in transfected cells; host or cells: HEK293, stably co-transfected
Description: (§4) All fluorometric Ca^2+ assays were done in (4-(2-hydroxyethyl)-1-piperazineethanesulfonic acid) (HEPES)-buffered saline (HBS), containing 132 mM NaCl, 6 mM KCl, 1 mM MgCl2, 1 mM CaCl2, 5.5 mM D-glucose, 10 mM HEPES, and 0.035% bovine serum albumin (BSA) adjusted to pH 7.4 with NaOH. For measurements in Ca^2+-free bath solutions, a modified HBS without CaCl2 was supplemented with 200 µM ethylene glycol-bis(β-aminoethyl ether)-N,N,N′,N′-tetraacetic acid (EGTA).
(§5) The primary compound screen and the generation of concentration response curves in HEK293 cells or in PC12 cells were performed by using a custom-made fluorescence plate imager built into a robotic liquid handling station equipped with a 96-tip multichannel head (Freedom Evo 150, Tecan, Männedorf, Switzerland) as described previously. To this end, trypsinized cell suspensions were loaded with 4 µM fluo-4/AM (Invitrogen, Thermo Fisher Scientific, Waltham, MA, U.S.A.) in cell culture medium for 30 min at 37 °C. After brief centrifugation, cells were resuspended in HBS and dispensed into black pigmented, clear-bottom 384-well plates (Greiner µClear, Frickenhausen, Germany). Plates were mounted on the imager, and fluorescence signals were recorded with a cooled Zyla 5.5 camera (Andor, Belfast, UK) through a 515 nm long pass filter. The image acquisition was controlled by the µManager software (http://micro-manager.org), and excitation with a LED array (470 nm) was synchronized by the camera trigger output. After baseline recording for about 60 s, the compound libraries or serial dilutions of activators or inhibitors were added to the cells by the liquid handling device. When inhibitory potencies were evaluated, a second pipetting step with the respective reference agonist was performed. Fluorescence intensities were calculated from image stacks for each well with ImageJ (National Institutes of Health, Bethesda, MD, U.S.A.), corrected for background signals, and normalized to the initial intensities (F/F0). […]

parental HEK293 cells = experiment: [Ca2+]i response in un-transfected parental HEK293 cells; format: cell-based, human; details: concentrations up to 50 µM
Description: as §4, §5

EC50 of OAG in the presence of artemisinin (TRPC3 [2]; 30 or 100 µM artemisinin co-applied) | TRPC3 activation in concentration response analysis (TRPC3 [2]; fluo-4, up to 200 µM, compared with solvent (DMSO)) | SMILES | further increase in [Ca2+]i after challenge with maximally effective artemisinin (TRPC3 [1]) | current densities in TRPC7-expressing HEK cells (TRPC7) | [Ca2+]i in fura 2-loaded PC12 cells [3] | current densities in TRPC6-expressing HEK cells (TRPC6) | effect on TRPC7 (hTRPC7-YFP) | effect on TRPC6 (hTRPC6-YFP; fluo-4 concentration response analysis) | signal in counterscreen with TRPC6-expressing cells (hTRPC6-YFP; primary screen, 20 µM) | response of cells stably transfected with both TRPC3 and TRPC6 [4] | response of un-transfected parental HEK293 cells (parental HEK293 cells) | fluorescence signal of the Ca2+ indicator in primary screen (TRPC3 [2]; 20 µM, acute addition)
shifted to lower concentrations | – | CCCCCCCC/C=C\CCCCCCCC(=O)OC[C@H](CO)OC(C)=O [OAG, 1-oleoyl-2-acetyl-sn-glycerol] | failed to induce a further increase in [Ca^2+]i | caused increases in current densities | significant increases in [Ca^2+]i | caused increases in current densities | – | – | – | – | – | –
– | did not reach saturation | C[C@H]1[C@@H](O)O[C@@H]2O[C@@]3(C)CC[C@H]4[C@H](C)CC[C@@H]1[C@@]24OO3 [artenimol] | – | – | – | – | remained largely unaffected | marked preference to activate TRPC3, but not the closely related TRPC6 channel | no signals | in a very similar fashion as HEKTRPC3-YFP cells | no response | immediate and transient increase in the fluorescence signal

Reference: paper PMC7016953 (Cells, 2020)
